The CheMixHub viscosity set

Assay: xn = mol fraction of the nth substance listed
Details: 101 kPa

CCCCN + Cc1cccc(C)c1
303.15 K
Details	viscosity [mPa·s]
x1 = 0.0824	0.525
x1 = 0.1495	0.516
x1 = 0.2739	0.497
x1 = 0.387	0.484
x1 = 0.4543	0.476
x1 = 0.5525	0.469
x1 = 0.6484	0.462
x1 = 0.7553	0.457
x1 = 0.816	0.453
x1 = 0.8978	0.448
x1 = 0.9469	0.445

CCCCN + Cc1ccccc1
303.15 K
Details	viscosity [mPa·s]
x1 = 0.0685	0.51
x1 = 0.1474	0.497
x1 = 0.2553	0.485
x1 = 0.328	0.474
x1 = 0.4247	0.464
x1 = 0.5197	0.457
x1 = 0.6107	0.453
x1 = 0.6993	0.449
x1 = 0.7946	0.446
x1 = 0.8819	0.445
x1 = 0.9407	0.444
x2 = 0.1475	0.4405
x2 = 0.2127	0.441
x2 = 0.2918	0.439
x2 = 0.3842	0.4402
x2 = 0.5074	0.4449
x2 = 0.6083	0.4543
x2 = 0.7064	0.4677
x2 = 0.8686	0.4956

CCCCN + Cc1ccccc1C
303.15 K
Details	viscosity [mPa·s]
x1 = 0.0811	0.648
x1 = 0.1509	0.624
x1 = 0.2681	0.587
x1 = 0.3574	0.56
x1 = 0.4598	0.535
x1 = 0.546	0.518
x1 = 0.6419	0.499
x1 = 0.7306	0.484
x1 = 0.8169	0.469
x1 = 0.8974	0.457
x1 = 0.9503	0.45

CCCCN + ClC(Cl)(Cl)Cl
viscosity [mPa·s]
Details	293.15 K	298.15 K	303.15 K	308.15 K
x1 = 0.1017	0.924	0.86	0.806	0.76
x1 = 0.1975	0.879	0.818	0.766	0.723
x1 = 0.2974	0.832	0.774	0.726	0.684
x1 = 0.3676	0.799	0.743	0.697	0.657
x1 = 0.4895	0.742	0.69	0.647	0.61
x1 = 0.5536	0.712	0.661	0.621	0.585
x1 = 0.6318	0.675	0.627	0.589	0.555
x1 = 0.6708	0.657	0.61	0.573	0.54
x1 = 0.7779	0.606	0.563	0.53	0.499
x1 = 0.8299	0.582	0.54	0.508	0.479
x1 = 0.912	0.543	0.504	0.475	0.447

CC[N+](=O)[O-] + ClC(Cl)(Cl)Cl
viscosity [mPa·s]
Details	x1 = 0.1	x1 = 0.2	x1 = 0.3	x1 = 0.4	x1 = 0.5	x1 = 0.6	x1 = 0.7	x1 = 0.8	x1 = 0.9
303.15 K	0.7767	0.7448	0.7173	0.6971	0.6667	0.6402	0.6152	0.5924	0.5824
308.15 K	0.7408	0.6988	0.6673	0.6509	0.6305	0.6024	0.5769	0.5634	0.5522
318.15 K	0.6485	0.6213	0.597	0.5764	0.5533	0.5327	0.514	0.4996	0.4945
